The numbers were not newly measured in patent US20020004489A1, “Retinoid receptor interacting polynucleotides, polypeptides, and antibodies” (priority 1999, published 2002), which cites them from elsewhere.

The conditions of data set [1]: deletion of 8-10 C-terminal residues, versus undeleted protein.
The test system of data set [2] is HIV.
The subject of data set [3] is viruses containing the K103N mutation.
The subject of data set [4] is lamivudine-resistant isolates.
Data set [5] deals with AZT/3TC-resistant virus.
The test system of data set [6] is protease inhibitor-resistant viruses.

In the case of Interferon gamma, the “activity after deleting 8-10 amino acid residues from the carboxy terminus” value in data set [1] is “up to ten times higher activity”.

As for `CC[C@H]1C(=O)Nc2ccc(F)cc2N1C(=O)OC(C)C` [GW-420867X], in data set [2] (greater activity than HBY097), the “activity relative to HBY097” value is given as 25 fold. For the same molecule, the “activity against K103N mutants” value in data set [3] is on record as “active against K103N mutants”. In the case of `CC(C)c1nc(COC(N)=O)n(Cc2ccncc2)c1Sc1cc(Cl)cc(Cl)c1` [CAPRAVIRINE], the “activity against K103N mutants” value in data set [3] is listed as “activity against viruses containing the K103N mutation”. Turning to `Nc1ccn([C@H]2CO[C@@H](CO)S2)c(=O)n1` [dOTC], in data set [4], the “activity against lamivudine-resistant isolates” value is reported as “retains activity against a substantial proportion of lamivudine-resistant isolates”. As to `C[C@H](Sc1nc(N)cc(Cl)n1)c1cc2ccoc2cn1` [PNU-142721], the “activity relative to its predecessor delavirdine” value in data set [2] (greater activity than delavirdine) is listed as 20- to 50 fold. Moreover, in data set [3], the “activity against K103N mutants” value is “active against K103N mutants”. Turning to `Nc1nc(=O)n([C@@H]2CS[C@H](CO)O2)cc1F` [COVIRACIL, emtricitabine], the “activity in vitro relative to lamivudine (3TC)” value in data set [2] (in vitro, greater activity than lamivudine (3TC)) is 3- to 10 fold.

Turning to `Nc1nc(=O)n([C@H]2C=C[C@@H](CO)O2)cc1F` [DD4FC], the “activity against AZT/3TC-resistant virus” value in data set [5] is “activity against AZT/3TC-resistant virus”. As to `Cc1ccccc1CNC(=O)[C@H]1N(C(=O)[C@@H](O)[C@H](Cc2ccccc2)NC(=O)c2cccc(O)c2C)CSC1(C)C` [AG-1776], the “in vitro activity against protease inhibitor-resistant viruses” value in data set [6] is given as “in vitro activity against protease inhibitor-resistant viruses”.
